Data taken from BigSolDB 2.1.

## COC(=O)/C=C/c1cc(OC)c(O)c(OC)c1
In ethyl acetate, 303.15 K
  solubility (mole fraction): 0.117
In ethyl acetate, 307.15 K
  solubility (mole fraction): 0.128
In ethyl acetate, 312.15 K
  solubility (mole fraction): 0.147
In ethyl acetate, 317.15 K
  solubility (mole fraction): 0.157
In ethyl acetate, 321.15 K
  solubility (mole fraction): 0.168
In n-hexane, 303.15 K
  solubility (mole fraction): 0.000292
In n-hexane, 307.15 K
  solubility (mole fraction): 0.000383
In n-hexane, 312.15 K
  solubility (mole fraction): 0.000495
In n-hexane, 317.15 K
  solubility (mole fraction): 0.000743
In n-hexane, 321.15 K
  solubility (mole fraction): 0.000804
In tert-amyl alcohol, 303.15 K
  solubility (mole fraction): 0.0264
In tert-amyl alcohol, 307.15 K
  solubility (mole fraction): 0.0336
In tert-amyl alcohol, 312.15 K
  solubility (mole fraction): 0.0644
In tert-amyl alcohol, 317.15 K
  solubility (mole fraction): 0.0926
In tert-amyl alcohol, 321.15 K
  solubility (mole fraction): 0.14
In tert-butanol, 303.15 K
  solubility (mole fraction): 0.0184
In tert-butanol, 307.15 K
  solubility (mole fraction): 0.0234
In tert-butanol, 312.15 K
  solubility (mole fraction): 0.0523
In tert-butanol, 317.15 K
  solubility (mole fraction): 0.0743
In tert-butanol, 321.15 K
  solubility (mole fraction): 0.0973

## COC(=O)/C=C/c1ccc(O)c(OC)c1
In ethyl acetate, 303.15 K
  solubility (mole fraction): 0.217
In ethyl acetate, 307.15 K
  solubility (mole fraction): 0.247
In ethyl acetate, 312.15 K
  solubility (mole fraction): 0.279
In ethyl acetate, 317.15 K
  solubility (mole fraction): 0.305
In ethyl acetate, 321.15 K
  solubility (mole fraction): 0.334
In n-hexane, 303.15 K
  solubility (mole fraction): 0.00112
In n-hexane, 307.15 K
  solubility (mole fraction): 0.00211
In n-hexane, 312.15 K
  solubility (mole fraction): 0.00251
In n-hexane, 317.15 K
  solubility (mole fraction): 0.00354
In n-hexane, 321.15 K
  solubility (mole fraction): 0.00416
In tert-amyl alcohol, 303.15 K
  solubility (mole fraction): 0.215
In tert-amyl alcohol, 307.15 K
  solubility (mole fraction): 0.246
In tert-amyl alcohol, 312.15 K
  solubility (mole fraction): 0.287
In tert-amyl alcohol, 317.15 K
  solubility (mole fraction): 0.312
In tert-amyl alcohol, 321.15 K
  solubility (mole fraction): 0.342
In tert-butanol, 303.15 K
  solubility (mole fraction): 0.182
In tert-butanol, 307.15 K
  solubility (mole fraction): 0.209
In tert-butanol, 312.15 K
  solubility (mole fraction): 0.247
In tert-butanol, 317.15 K
  solubility (mole fraction): 0.295
In tert-butanol, 321.15 K
  solubility (mole fraction): 0.325

## COC(=O)/C=C/c1ccc(O)cc1
In ethyl acetate, 303.15 K
  solubility (mole fraction): 0.0856
In ethyl acetate, 307.15 K
  solubility (mole fraction): 0.0915
In ethyl acetate, 312.15 K
  solubility (mole fraction): 0.0997
In ethyl acetate, 317.15 K
  solubility (mole fraction): 0.108
In ethyl acetate, 321.15 K
  solubility (mole fraction): 0.113
In n-hexane, 303.15 K
  solubility (mole fraction): 2.81e-05
In n-hexane, 307.15 K
  solubility (mole fraction): 4.38e-05
In n-hexane, 312.15 K
  solubility (mole fraction): 6.18e-05
In n-hexane, 317.15 K
  solubility (mole fraction): 8.13e-05
In n-hexane, 321.15 K
  solubility (mole fraction): 0.000124
In tert-amyl alcohol, 303.15 K
  solubility (mole fraction): 0.116
In tert-amyl alcohol, 307.15 K
  solubility (mole fraction): 0.126
In tert-amyl alcohol, 312.15 K
  solubility (mole fraction): 0.154
In tert-amyl alcohol, 317.15 K
  solubility (mole fraction): 0.174
In tert-amyl alcohol, 321.15 K
  solubility (mole fraction): 0.201
In tert-butanol, 303.15 K
  solubility (mole fraction): 0.0977
In tert-butanol, 307.15 K
  solubility (mole fraction): 0.113
In tert-butanol, 312.15 K
  solubility (mole fraction): 0.128
In tert-butanol, 317.15 K
  solubility (mole fraction): 0.143
In tert-butanol, 321.15 K
  solubility (mole fraction): 0.171
